# “And” between values parts separate entries of the source, which are not always exact repeats. Equal entries are not always repeated.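 Interpolation was linear, between the two tested concentrations surrounding the appropriate level; five concentrations were tested over 48 hours in 96-well plates. GI50 marks 50% less growth.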 The source made the active and inactive calls. Rule as the data show it: active = GI50 up to about 1.1 µM and inactive = higher.
# Key:
# Assay in all cases: inhibition of tumour cell growth, NCI panel, 48 h
# 786-0 = test system: 786-0
# A498 = test system: A498
# A549 = test system: A549
# ACHN = test system: ACHN
# BT-549 = test system: BT-549
# CAKI-1 = test system: CAKI-1
# CCRF-CEM = test system: CCRF-CEM
# COLO 205 = test system: COLO 205
# DU-145 = test system: DU-145
# EKVX = test system: EKVX
# HCC 2998 = test system: HCC 2998
# HCT-116 = test system: HCT-116
# HCT-15 = test system: HCT-15
# HL-60 = test system: HL-60
# HOP-62 = test system: HOP-62
# HOP-92 = test system: HOP-92
# HT-29 = test system: HT-29
# Hs-578T = test system: Hs-578T
# IGROV-1 = test system: IGROV-1
# K562 = test system: K562
# KM12 = test system: KM12
# LOX IMVI = test system: LOX IMVI
# M14 = test system: M14
# MCF7 = test system: MCF7
# MDA-MB-231 = test system: MDA-MB-231
# MDA-MB-435 = test system: MDA-MB-435
# MDA-N = test system: MDA-N
# MOLT-4 = test system: MOLT-4
# Malme-3M = test system: Malme-3M
# NCI-H226 = test system: NCI-H226
# NCI-H23 = test system: NCI-H23
# NCI-H460 = test system: NCI-H460
# NCI-H522 = test system: NCI-H522
# NCI/ADR-RES = test system: NCI/ADR-RES
# OVCAR-4 = test system: OVCAR-4
# OVCAR-5 = test system: OVCAR-5
# OVCAR-8 = test system: OVCAR-8
# PC-3 = test system: PC-3
# RPMI-8226 = test system: RPMI-8226
# RXF 393 = test system: RXF 393
# SF-268 = test system: SF-268
# SF-295 = test system: SF-295
# SF-539 = test system: SF-539
# SK-MEL-28 = test system: SK-MEL-28
# SK-MEL-2 = test system: SK-MEL-2
# SK-MEL-5 = test system: SK-MEL-5
# SK-OV-3 = test system: SK-OV-3
# SN12C = test system: SN12C
# SNB-19 = test system: SNB-19
# SR = test system: SR
# SW-620 = test system: SW-620
# U-251 = test system: U-251
# UACC-257 = test system: UACC-257
# UACC-62 = test system: UACC-62
# UO-31 = test system: UO-31
smiles,measurement,setting,value
CC(=O)OC(/C=C/c1ccccc1)P1(=O)N(CC(C)(C)C)[C@@H]2CCCC[C@H]2N1CC(C)(C)C (stereo not given in full),GI50,786-0,9.62 µM (inactive) and 7.38 µM (inactive)
same,GI50,A498,8.28 µM (inactive)
same,GI50,A549,5.05 µM (inactive) and 4.55 µM (inactive)
same,GI50,ACHN,10 µM (inactive) and 7.57 µM (inactive)
same,GI50,BT-549,11.5 µM (inactive) and 14.4 µM (inactive)
same,GI50,CAKI-1,12.8 µM (inactive) and 8.99 µM (inactive)
same,GI50,CCRF-CEM,4.81 µM (inactive) and 4.38 µM (inactive)
same,GI50,COLO 205,3.69 µM (inactive) and 3.6 µM (inactive)
same,GI50,DU-145,10.4 µM (inactive) and 9.75 µM (inactive)
same,GI50,EKVX,5.27 µM (inactive) and 5.68 µM (inactive)
same,GI50,HCC 2998,5 µM (inactive) and 2.77 µM (inactive)
same,GI50,HCT-116,4.14 µM (inactive) and 3.53 µM (inactive)
same,GI50,HCT-15,6.75 µM and 4.97 µM
same,GI50,HL-60,5.37 µM (inactive) and 5.71 µM (inactive)
same,GI50,HOP-62,16.2 µM (inactive) and 13.1 µM (inactive)
same,GI50,HOP-92,12 µM (inactive)
same,GI50,HT-29,4.25 µM (inactive) and 3.89 µM (inactive)
same,GI50,Hs-578T,6.92 µM (inactive) and 8.67 µM (inactive)
same,GI50,IGROV-1,5.11 µM (inactive) and 6.78 µM (inactive)
same,GI50,K562,5.02 µM (inactive) and 4.68 µM (inactive)
same,GI50,KM12,6.3 µM (inactive) and 6.65 µM (inactive)
same,GI50,LOX IMVI,11.2 µM (inactive) and 9.42 µM (inactive)
same,GI50,M14,5.9 µM (inactive) and 5.24 µM (inactive)
same,GI50,MCF7,4.79 µM (inactive) and 4.61 µM (inactive)
same,GI50,MDA-MB-231,9.68 µM (inactive) and 7.26 µM (inactive)
same,GI50,MDA-MB-435,7.36 µM (inactive) and 10 µM (inactive)
same,GI50,MDA-N,11 µM (inactive) and 7.73 µM (inactive)
same,GI50,MOLT-4,3.63 µM (inactive) and 3.83 µM (inactive)
same,GI50,Malme-3M,12.3 µM (inactive) and 13.1 µM (inactive)
same,GI50,NCI-H226,6.87 µM (inactive) and 10.9 µM (inactive)
same,GI50,NCI-H23,7.05 µM (inactive) and 5.18 µM (inactive)
same,GI50,NCI-H460,6.24 µM (inactive) and 4.84 µM (inactive)
same,GI50,NCI-H522,3.76 µM (inactive) and 3.32 µM (inactive)
same,GI50,NCI/ADR-RES,5.89 µM (inactive) and 5.11 µM (inactive)
same,GI50,OVCAR-4,5.35 µM (inactive) and 5.22 µM (inactive)
same,GI50,OVCAR-5,10.7 µM (inactive) and 9.86 µM (inactive)
same,GI50,OVCAR-8,6.56 µM (inactive) and 7.1 µM (inactive)
same,GI50,PC-3,3.44 µM (inactive) and 3.03 µM (inactive)
same,GI50,RPMI-8226,3.1 µM (inactive)
same,GI50,RXF 393,3.24 µM (inactive) and 6.08 µM (inactive)
same,GI50,SF-268,10.9 µM (inactive) and 8.45 µM (inactive)
same,GI50,SF-295,5.87 µM (inactive) and 3.86 µM (inactive)
same,GI50,SF-539,8.11 µM (inactive) and 13.6 µM (inactive)
same,GI50,SK-MEL-28,17.7 µM (inactive) and 13.5 µM (inactive)
same,GI50,SK-MEL-2,11.1 µM (inactive) and 5.96 µM (inactive)
same,GI50,SK-MEL-5,5.26 µM (inactive) and 6.3 µM (inactive)
same,GI50,SK-OV-3,15.2 µM (inactive) and 8.71 µM (inactive)
same,GI50,SN12C,10.4 µM (inactive) and 7.59 µM (inactive)
same,GI50,SNB-19,10.5 µM (inactive) and 8.15 µM (inactive)
same,GI50,SR,2.92 µM (inactive) and 4.02 µM (inactive)
same,GI50,SW-620,9.62 µM (inactive) and 5.27 µM (inactive)
same,GI50,U-251,8.81 µM (inactive) and 6.38 µM (inactive)
same,GI50,UACC-257,4.07 µM (inactive) and 3.3 µM (inactive)
same,GI50,UACC-62,9.2 µM (inactive) and 8.99 µM (inactive)
same,GI50,UO-31,7.18 µM (inactive) and 4.19 µM (inactive)

# Source: ChEMBL document CHEMBL1201862, “PubChem BioAssay data set” (2004)
